The record followed here is PMC5667507, “A novel ^18F-labelled high affinity agent for PET imaging of the translocator protein” (Chemical Science, 2015).

For one data set, the system named is TSPO. The data set can be described thus: Dynamic PET scan of a mouse bearing an intracranial U87MG-Luc2 tumour. Type of data set: in vivo. As to conditions: single mouse, 120 min dynamic PET, early portion of the scan. On the procedure:
In order to investigate the potential of [^18F]-AB5186 6 as a PET tracer for TSPO a dynamic PET scan was performed using the Albira imaging system (Carestream Molecular Imaging, USA) in a single mouse bearing an intracranial U87MG-Luc2 tumour for 120 min after intravenous administration of the tracer. Postmortem histological examination of the brain collected at the end of the scan was conducted to visualise the anatomical location of the tumour. Following reconstruction, the entire dynamic PET image was manually co-registered to key anatomical structures of the CT (i.e. the spine, the front limbs and the eye sockets). […]
Fig. 6 Averaged PET images of a U87MG-Luc2 glioma bearing mouse brain following [^18F]-AB5186 injection: (a) 0–40 min averaged, (b) 41–80 min averaged, and (c) 81–120 min averaged; 120 min dynamic scan. […] (f) Tracer kinetics expressed as a ratio of the tumour to contralateral SUVs.
20 min the mice were sacrificed by CO2 asphyxiation, the brains were removed and frozen using a Cryospray (Cellpath). […] The film was developed following an overnight incubation at −20 ° C and scanned using a Bio-Rad GS-800 Calibrated Densitometer with the aid the Quantity One Basic (version 4.6.3) software. Quantification was performed using the ImageJ 1.47v software. […]

A short description of data set [1]: Baseline dynamic PET scan of healthy baboon brain. Format: in vivo. As to conditions: whole brain, 240 min dynamic PET, i.v. bolus. As for the experimental part:
(§1) Following PET reconstruction and co-registration to an MRI (Fig. 7a), a time–activity curve for the tracer in the whole brain was established (Fig. 7b). […]
divided by the animal weight. A secondary spherical VOI was used to define the contralateral kinetics and the tumour to contralateral SUV ratio was calculated as a function of time. […]
were represented graphically using the GraphPad Prism 6 software (GraphPad Softare Inc).
14. Primate PET Methodology
A baboon (Papio anubis, 21.3 kg) was fasted for up to 12 h prior to imaging. […] Body temperature was maintained using a heated water blanket and monitored by rectal thermometer. Vital signs, including end tidal CO2, SpO2, heart rate, respiration rate and blood pressure, were monitored continuously and recorded at least every 15 min during the study. […]
(§2) generated and SUV determined as the concentration in the VOI divided by the injected dose divided […]
exception of the samples collected for metabolite analysis (3.5 mL each), all blood samples were 1 mL each. […] After blood collection, all samples were kept on ice until analysed.
Radioactivity in whole blood and plasma was assessed with a well-type γ-counter using a 400–1400 keV window (Perkin Elmer Wallac 2480, USA). […]

The nature of data set [2]: Metabolite analysis of arterial blood samples from baboon (parent fraction). Format: in vivo, baboon (Papio anubis). To be noted: baboon arterial plasma, 60 minutes post-injection. As for the experimental part:
as §1, §2
software (GraphPad Softare Inc).
Arterial blood samples were collected from the baboon every 45 s until 6 min after injection of […]
exception of the samples collected for metabolite analysis (3.5 mL each), all blood samples were 1 mL each. Samples for metabolite analysis were collected at 6, 15, 30, 60, 120, 150 and 240 min after radiotracer bolus injection. After blood collection, all samples were kept on ice until analysed.
Radioactivity in whole blood and plasma was assessed with a well-type γ-counter using a 400–1400 keV window (Perkin Elmer Wallac 2480, USA). Plasma samples were processed by acetonitrile denaturation and analysed by HPLC on a Luna C18 column with a mobile phase of MeOH/H2O-Et3N (0.2%) 80/20 at a flow rate of 4 mL/min to estimate the parent fraction.

In the case of `CCN(CC)C(=O)c1nc2ccccc2c(-c2ccccc2)c1C[18F]` [[^18F]-AB5186 6], the “amount of tracer in tumour versus contralateral region (time-activity curve)” value with TSPO is “greater amounts”. The “peak standardised uptake value (SUV) in brain” value in data set [1] was determined as 1.67. For the same compound, the parent still intact in data set [2] is 29.8%.
